Experimental findings from patent publication US9521847B2, “Synergistic weed control from applications of pyridine carboxylic acid herbicides and synthetic auxin herbicides and/or auxin transport inhibitors” (Dow AgroSciences LLC, priority 2014, dated 2016) are described below.

Data set [1] has as its system pigweed (AMARE, Amaranthus retroflexus). Kind of data set: Greenhouse postemergence trial, % visual injury. The format is in vivo.
Data set [2] concerns winter rape (BRSNW, Brassica napus). Kind of data set: Greenhouse postemergence trial, % visual injury. In kind it is in vivo. Particulars: fluroxypyr-MHE 70 g ae/ha.
Data set [3] concerns common lambsquarters (CHEAL, Chenopodium album L.). As to the kind of experiment: Greenhouse postemergence trial, % visual injury. The format is in vivo. Particulars: Chenopodium album, post-emergence, read-out: % visual injury Obs.
Data set [4] deals with kochia (KCHSC, Kochia scoparia). As to the kind of experiment: Greenhouse postemergence trial, % visual injury. In kind it is in vivo. Particulars: fluroxypyr-MHE 100 g ae/ha. The method, then:
Following the protocol in Example 1, compound 1 and compound 2 were combined with 2,4 D EHE (EC) and applied to kochia (KCHSC, Kochia scoparia) and the phytotoxicity of the herbicidal compositions was measured.
Following the protocol in Example 1, compound 1 (EC) and Compound 2 (SC) were combined with diflufenzopyr and applied to kochia (Kochia scoparia, KCHSC) and the phytotoxicity of the herbicidal composition was measured.

For data set [5], the system named is velvetleaf (Abutilon theophrasti, ABUTH). Kind of data set: Greenhouse postemergence trial, % visual injury. The format is in vivo.
The subject of data set [6] is nutsedge (Cyperus esculentus, CYPES). As to the kind of experiment: Greenhouse postemergence trial, % visual injury. In kind it is in vivo. Particulars: CYPES, 70 g ae/ha.
The subject of data set [7] is sunflower (Helianthus annus, HELAN). As to the kind of experiment: Greenhouse postemergence trial, % visual injury. The format is in vivo.
The subject of data set [8] is wild buckwheat (Polygonum convolvulus, POLCO). As to the kind of experiment: Greenhouse postemergence trial, % visual injury. The format is in vivo.
Data set [9] relates to Russian thistle (Salsola iberica, SASKR). As to the kind of experiment: Greenhouse postemergence trial, % visual injury. In kind it is in vivo. Particulars: fluroxypyr-MHE 70 g ae/ha.
Data set [10] concerns wild mustard (Sinapis arvensis, SINAR). As to the kind of experiment: Greenhouse postemergence trial, % visual injury. The format is in vivo. Particulars: fluroxypyr-MHE 70 g ae/ha.
The test system of data set [11] is blackgrass (Alopecurus myosuroides, ALOMY). As to the kind of experiment: Greenhouse postemergence trial, % visual injury. In kind it is in vivo. Particulars: 70 g ae/ha.
Data set [12] has as its system wild oat (Avena fatua, VEFA). As to the kind of experiment: Greenhouse postemergence trial, % visual injury. Particulars: AVEFA. In kind it is in vivo.
Data set [13] relates to large crabgrass (Digitaria sanguinalis, DIGSA). As to the kind of experiment: Greenhouse postemergence trial, % visual injury. In kind it is in vivo. Particulars: Digitaria sanguinalis, post-emergence, read-out: % visual injury, Obs.
The subject of data set [14] is barnyardgrass (Echinochloa crus-galli, ECHCG). As to the kind of experiment: Greenhouse postemergence trial, % visual injury. In kind it is in vivo. Particulars: fluroxypyr-MHE 100 g ae/ha.
The subject of data set [15] is kochia (KCHSC, Kochia scoparia). Kind of data set: Greenhouse postemergence trial, % visual injury. The format is in vivo.
Data set [16] has as its system Canadian thistle (CIRAR, Cirsium arvense). Kind of data set: Greenhouse postemergence trial, % visual injury. Particulars: Cirsium arvense, post-emergence.
For data set [17], the system named is spring rape (Brassica napus, BRSNN). As to the kind of experiment: Greenhouse postemergence trial, % visual injury. Particulars: Brassica napus, post-emergence.
The test system of data set [18] is poinsettia (Euphorbia heterophylla, EPHHL). Kind of data set: Greenhouse postemergence trial, % visual injury. Particulars: Euphorbia heterophylla, post-emergence, read-out: % visual injury, Obs.
Data set [19] has as its system wild pansy (Viola tricolor, VIOTR). As to the kind of experiment: Greenhouse postemergence trial, % visual injury. Particulars: for % visual injury, Obs: VIOTR.
Data set [20] concerns ivyleaf morningglory (Ipomoea hederacea, IPOHE). As to the kind of experiment: Greenhouse postemergence trial, % visual injury.
A further data set relates to spring barley (HORVS). As to the kind of experiment: Greenhouse postemergence trial, crop phytotoxicity (% visual injury).
Another data set deals with winter wheat (TRZAW). The data set is described as above. Particulars: for % visual injury, Obs: TRZAW.
A further data set deals with maize (ZEAMX). The data set is described as above. Particulars: for % visual injury, Obs: ZEAMX.
In the next data set the test system is common rice (ORYSA). The data set is described as above.
Data set [21] relates to ivyleaved speedwell (Veronica hederifolia, VERHE). As to the kind of experiment: Greenhouse postemergence trial, % visual injury. In kind it is in vivo. Particulars: aminocyclopyrachlor 100 g ae/ha.
The test system of data set [22] is grain sorghum (Sorghum vulgare, SORVU). Kind of data set: Greenhouse postemergence trial, % visual injury. The format is in vivo.
Data set [23] has as its system common chickweed (Stellaria media, STEME). Kind of data set: Greenhouse postemergence trial, % visual injury. In kind it is in vivo. Particulars: aminopyralid-TIPA 5 g ae/ha.
The mark [24] stands for this setting: read-out: % visual injury (Obs).

The structures appear in SMILES notation.

With `CCCCCCC(C)OC(=O)COc1nc(F)c(Cl)c(N)c1Cl` (centres unmarked) [Fluroxypyr-MHE, fluroxypyr-meptyl, reference compound], the “% visual injury, Obs” value in [1] (AMARE, 70 g ae/ha) came out at 70%; in data set [6], 0%; in data set [11], 0%; in data set [12] (70 g ae/ha) it was 0%; in [19] (70 g ae/ha) it was 80%; in the data set with winter wheat (TRZAW) (70 g ae/ha), 0%. Further, the “% visual injury, Obs” value in the data set with maize (ZEAMX) (70 g ae/ha) is given as 0%. For the same compound, the “% visual injury (Obs)” value in [1] (fluroxypyr-MHE 70 g ae/ha) worked out at 50%; in [2], 95%; in data set [4], 65%; in [5] (fluroxypyr-MHE 100 g ae/ha), 70%; in [7] (fluroxypyr-MHE 100 g ae/ha) it was 80%; in data set [8] (fluroxypyr-MHE 70 g ae/ha), 75%. Also, the “% visual injury (Obs)” value in data set [9] is 95%; in data set [10] it was 85%; in data set [14], 0%; in [15] (fluroxypyr-MHE 70 g ae/ha), 93%; in data set [19] (fluroxypyr-MHE 100 g ae/ha) it was 80%; in the data set on spring barley (HORVS) (fluroxypyr-MHE 70 g ae/ha) it was 0%. The “% visual injury (Obs)” value with winter wheat (TRZAW) (fluroxypyr-MHE 70 g ae/ha), in the data set with winter wheat (TRZAW) (fluroxypyr-MHE 100 g ae/ha), with maize (ZEAMX) (fluroxypyr-MHE 100 g ae/ha) and with common rice (ORYSA) (fluroxypyr-MHE 100 g ae/ha) was 0% in each case. Further, the pest or weed control at 70 g/ha in data set [3] worked out at 10%; in data set [5] (Abutilon theophrasti, post-emergence, read-out: % visual injury, Obs), 40%; in [13], 33%; in [16] (read-out: % visual injury Obs, 70 g ae/ha alone, 20-22 d) it was 10%; in [18], 18%; in [20] (Ipomoea, post-emergence, read-out: % visual injury, Obs), 80%. Further, in data set [16] (read-out: % visual injury (Obs), fluroxypyr-MHE 100 g ae/ha), the pest or weed control at 100 g/ha worked out at 60%. For the same compound, in data set [17] (setting [24]), the plant injury at 100 g/ha was 85%. Further, in [17] (read-out: % visual injury, Obs), the plant injury at 70 g/ha was found to be 15%. Moreover, the “% visual injury Obs” value in the data set with spring barley (HORVS) (crop, 70 g ae/ha alone, 20-22 d) came out at 20%.

Consider `Nc1nc(C2CC2)nc(C(=O)O)c1Cl` [aminocyclopyrachlor, reference compound], for which, in data set [21], the “% visual injury (Obs)” value stood at 75%.

On to `Nc1cc(Cl)nc(C(=O)O)c1Cl` [aminopyralid-TIPA, aminopyralid-triisopropanolammonium, reference compound], for which the “% visual injury (Obs)” value in data set [7] (aminopyralid-TIPA 5 g ae/ha) came out at 60%; in data set [8] (aminopyralid-TIPA 5 g ae/ha), 65%; in [22] (aminopyralid-TIPA 5 g ae/ha), 0%; in [23], 60%; in data set [15] (aminopyralid-TIPA 5 g ae/ha), 10%; in data set [19] (aminopyralid-TIPA 5 g ae/ha), 10%. Further, the “% visual injury (Obs)” value in data set [20] (aminopyralid-TIPA 5 g ae/ha) is 60%; in the data set on winter wheat (TRZAW) (aminopyralid-TIPA 5 g ae/ha) it was 0%; in the data set with maize (ZEAMX) (aminopyralid-TIPA 5 g ae/ha), 0%; with common rice (ORYSA) (aminopyralid-TIPA 5 g ae/ha), 0%. In addition, the “% visual injury, Obs” value in data set [22] (SORVU, 5 g ae/ha) is on record as 5%; in [12] (5 g ae/ha), 0%; in data set [19] (5 g ae/ha), 48%; in the data set with winter wheat (TRZAW) (5 g ae/ha), 0%; with maize (ZEAMX) (5 g ae/ha), 3%. For the same compound, the pest or weed control at 5 g/ha was found to be 5% in data set [13]; 60% in data set [16] (read-out: % visual injury (Obs), aminopyralid-TIPA 5 g ae/ha); 18% in data set [18]. Besides, the plant injury at 5 g/ha in data set [17] (setting [24]) amounted to 10%.
